Tested on: conscious dogs
Assay: Gastric emptying of an acaloric liquid test meal delayed by administration of lidamidine, in conscious dogs
Assay type: in vivo, beagle dogs
Details: conscious dog; for ΔT/T^b (acceleration of gastric emptying of a liquid meal delayed by lidamidine) / change in vivo at 0.0025 mg/kg: dose 0.0025 mg/kg; for ΔT/T^a (acceleration of gastric emptying of a liquid meal delayed by lidamidine) / change in vivo at 0.01 mg/kg: dose 0.01 mg/kg; for change in vivo at 0.0025 mg/kg / change in vivo at 0.01 mg/kg: Canis lupus familiaris; for change in vivo at 0.0025 mg/kg: read-out: ΔT/T^b (acceleration of gastric emptying of a liquid meal delayed by lidamidine); for change in vivo at 0.01 mg/kg: read-out: ΔT/T^a (acceleration of gastric emptying of a liquid meal delayed by lidamidine)
Source text: C. Pharmacological Examples C.1. Gastric Emptying of an Acaloric Liquid Test Meal Delayed by Administration of Lidamidine, in Conscious Dogs
Female beagle dogs, weighing 7-14 kg, were trained to stand quietly in Pavlov frames. They were implanted with a gastric cannula under general anesthesia and aseptic precautions. After a medium laparatomy, an incision was made through the gastric wall in the longitudinal direction between the greater and the lesser curve, 2 cm above the nerves of Latarjet. The cannula was secured to the gastric wall by means of a double purse string suture and brought out via a stab wound at the left quadrant of the hypochondrium. Dogs were allowed a recovery period of at least two weeks. Experiments were started after a fasting period of 24 hours, during which water was available ad libitum. At the beginning of the experiment, the cannula was opened in order to remove any gastric juice or food remnants.
The stomach was cleansed with 40 to 50 ml lukewarm water. The test compound was administered I.V. (in a volume ≦3 ml via the vena cephalica), S.C. (in a volume ≦3 ml) or P.O. (in a volume of 1 ml/kg body weight, applied intragastrically via the cannula with a device that filled the lumen of the cannula: after injection of the test compound; 5 ml NaCl 0.9% was injected in order to correct for the dead space in the injection system). Immediately after administration of the test compound or its solvent, lidamidine (0.63 mg/kg was administered subcutaneously. 30 min later, the cannula was opened to determine the amount of fluid present in the stomach, promptly followed by reintroduction of the fluid. Then the test meal was administered via the cannula. This test meal consisted of 250 ml distilled water containing glucose (5 g/l) as a marker. The cannula remained closed for 30 min, whereafter the gastric contents were drained from the stomach to measure total volume (t=30 min). For later analysis 1 ml of the gastric contents was taken, promptly followed by reintroduction of the rest volume into the stomach. This sequence was repeated 4 times with 30 min intervals (t=60, 90, 120, 150 min).
In the 1 ml samples of the gastric contents, the glucose concentrations were measured on a Hitachi 717 automatic analyzer by the hexokinase method (Schmidt, 1961).
Curves were fitted to the measurement points (glucose versus time) using weighed non-linear regression analysis. Gastric emptying was quantified as the time needed to empty 70% of the meal (t 70%). The control emptying time was calculated as the mean t 70% of the last 5 solvent experiments of the same dog. Acceleration of delayed gastric emptying (Δt) was calculated as the time difference between t 70% compound and t 70% solvent. To correct for variations in emptying rate between dogs, Δt was expressed as % of t 70% solvent (Schuurkes et al. 1992)).

[1] = compounds, Δt = t 70% compound minus t 70% solvent, relative to t 70% solvent

Compound	ΔT/T^b (acceleration of gastric emptying of a liquid meal delayed by lidamidine) [1]	ΔT/T^a (acceleration of gastric emptying of a liquid meal delayed by lidamidine) [1]	further results
CCCCN1CC[C@@H](CNC(=O)c2cc(Cl)c(N)c3c2OCC3)[C@@H](O)C1 (racemic) [Compound 1]	−0.23	−0.20	
Nc1c(Cl)cc(C(=O)NC[C@@H]2CCN(CCOCCO)C[C@H]2O)c2c1CCO2 (racemic) [Compound 17]	−0.30	0.06	ΔT/T^b (acceleration of gastric emptying of a liquid meal delayed by lidamidine) (intermediates): −0.18; ΔT/T^a (acceleration of gastric emptying of a liquid meal delayed by lidamidine) (intermediates): −0.28
N#CCCCN1CC[C@@H](CNC(=O)c2cc(Cl)c(N)c3c2OCC3)[C@H](O)C1 (racemic) [Compound 18]	−0.47	−0.57	
CC(C)OCCCN1CC[C@@H](CNC(=O)c2cc(Cl)c(N)c3c2OCC3)[C@H](O)C1 (racemic) [Compound 19]	−0.30	−0.78	
CS(=O)(=O)NCCN1CC[C@@H](CNC(=O)c2cc(Cl)c(N)c3c2OCC3)[C@H](O)C1 (racemic) [Compound 20]	−0.20	−0.28	
CCCCN1CC[C@@H](CNC(=O)c2cc(Cl)c(N)c3c2OCC3)[C@H](OC)C1 (racemic) [Compound 29]	−0.32	−0.51	
CCCCN1CC[C@@H](CNC(=O)c2cc(Cl)c(N)c3c2OC(C)(C)C3)[C@H](O)C1 (racemic) [Compound 36]		−0.01	
COCCCN1CC[C@@H](CNC(=O)c2cc(Cl)c(N)c3c2OC(C)(C)C3)[C@H](O)C1.O=C(O)C(=O)O (racemic) [Compound 37]	−0.41	−0.62	
CC(C)OCCCN1CC[C@@H](CNC(=O)c2cc(Cl)c(N)c3c2OC(C)(C)C3)[C@H](O)C1.O=C(O)/C=C\C(=O)O (racemic) [Compound 42]		−0.12	
CC(=O)CCCN1CC[C@@H](CNC(=O)c2cc(Cl)c(N)c3c2OC(C)(C)C3)[C@H](O)C1 (racemic) [Compound 49]	−0.19	−0.28	
CCCCN1CC[C@@H](CNC(=O)c2cc(Cl)c(N)c3c2OCC3)[C@H](O)C1 (relative stereo) [Compound 2, trans-4-amino-N-[(1-butyl-3-hydroxy-4-piperidinyl)methyl]-5-chloro-2,3-dihydro-7-benzofurancarboxamide]			change in vivo at 0.0025 mg/kg [1]: -61%; change in vivo at 0.01 mg/kg [1]: -34%
COCCCN1CC[C@@H](CNC(=O)c2cc(Cl)c(N)c3c2OCC3)[C@H](O)C1 (relative stereo) [Compound 3, trans-4-amino-5-chloro-2,3-dihydro-N-[[3-hydroxy-1-(3-methoxypropyl)-4-piperidinyl]methyl]-7-benzofurancarboxamide]			change in vivo at 0.0025 mg/kg [1]: -51%; change in vivo at 0.01 mg/kg [1]: -73%
CC(=O)CCCN1CC[C@H](CNC(=O)c2cc(Cl)c(N)c3c2OCC3)[C@H](O)C1 (relative stereo) [Compound 4, (cis)-4-amino-5-chloro-2,3-dihydro-N-[[3-hydroxy-1-(4-oxopentyl)-4-piperidinyl]methyl]-7-benzofurancarboxamide]			change in vivo at 0.0025 mg/kg [1]: -21%; change in vivo at 0.01 mg/kg [1]: -8%
CC(=O)CCCN1CC[C@@H](CNC(=O)c2cc(Cl)c(N)c3c2OCC3)[C@H](O)C1 (relative stereo) [Compound 5, trans-4-amino-5-chloro-2,3-dihydro-N-[[3-hydroxy-1-(4-oxopentyl)-4-piperidinyl]methyl]-7-benzofurancarboxamide]			change in vivo at 0.0025 mg/kg [1]: -57%; change in vivo at 0.01 mg/kg [1]: -36%

From patent USRE40793E1, “Bicyclic benzamides of 3-or 4-substituted 4-(aminomethyl)-piperidine derivatives” (Janssen Pharmaceutica, N.V., priority 1997, dated 2009)
